In ChEMBL document CHEMBL5131414, “Design, synthesis, and evaluation of phenylpiperazine-phenylacetate derivatives as rapid recovery hypnotic agents” (Bioorg Med Chem Lett, 2022):

Assays:
[1] = Toxicity in mouse assessed as lethal dose; conditions: in vivo
[2] = Therapeutic index, ratio of LD50 for toxicity in mouse to HD50 for anesthetic activity in mouse; format: organism-based; conditions: in vivo, read-out: TI
[3] = Lipophilicity, logP of the compound; format: physicochemical; conditions: octanol/water
[4] = test system: Mus musculus; test: Anesthetic activity in mouse assessed as concentration required to induce hypnotic effect; format: functional, organism-based
[5] = target: GABA-A receptor; anion channel (Homo sapiens) (UniProt P14867+P47870+P18507+P28472+P48169+Q99928+Q9UN88+P34903+O00591+O14764+Q8N1C3+P18505+P78334+P47869+P31644+Q16445); test: Inhibition of GABAA receptor (unknown origin) at 50 uM by radioligand receptor binding assay relative to control; format: protein-complex assay
[6] = Toxicity in rabbit assessed as lethal dose; set-up: species or system Oryctolagus cuniculus; conditions: in vivo
[7] = test system: Oryctolagus cuniculus; test: Anesthetic activity in rabbit assessed as concentration required to induce hypnotic effect; format: functional, organism-based
[8] = test system: Rattus norvegicus; test: Anesthetic activity in rat assessed as onset time; format: functional
[9] = test system: Oryctolagus cuniculus; test: Anesthetic activity in rabbit assessed as time duration of loss of righting reflex; format: functional
[10] = test system: Mus musculus; test: Anesthetic activity in mouse assessed as time to walk at 2 times of HD50 concentration; format: functional
[11] = test system: Rattus norvegicus; test: Anesthetic activity in rat assessed as concentration required to induce hypnotic effect; format: functional, organism-based
[12] = test system: Oryctolagus cuniculus; test: Anesthetic activity in rabbit assessed as onset time; format: functional
[13] = test system: Rattus norvegicus; test: Anesthetic activity in rat assessed as time to walk at 2 times of HD50 concentration; format: functional
[14] = test system: Mus musculus; test: Anesthetic activity in mouse assessed as onset time; format: functional
[15] = test system: Rattus norvegicus; test: Anesthetic activity in rat assessed as time duration of loss of righting reflex; format: functional
[16] = test system: Oryctolagus cuniculus; test: Anesthetic activity in rabbit assessed as time to walk at 2 times of HD50 concentration; format: functional
[17] = Toxicity in rat assessed as lethal dose; conditions: in vivo
[18] = test system: Mus musculus; test: Anesthetic activity in mouse assessed as time duration of loss of righting reflex; format: functional
[19] = Therapeutic index, ratio of LD50 for toxicity in rabbit to HD50 for anesthetic activity in rabbit; conditions: read-out: TI
[20] = Therapeutic index, ratio of LD50 for toxicity in rat to HD50 for anesthetic activity in rat; conditions: read-out: TI
[21] = target: Sodium-dependent serotonin transporter (Homo sapiens) (UniProt P31645); test: Inhibition of 5-HT transporter (unknown origin) at 50 uM by radioligand receptor binding assay relative to control
[22] = target: T1, Alpha-2A adrenergic receptor (Homo sapiens) (UniProt P08913); test: Inhibition of adrenergic alpha 2A receptor (unknown origin) at 50 uM by radioligand receptor binding assay relative to control
T1 sequence (whole entry): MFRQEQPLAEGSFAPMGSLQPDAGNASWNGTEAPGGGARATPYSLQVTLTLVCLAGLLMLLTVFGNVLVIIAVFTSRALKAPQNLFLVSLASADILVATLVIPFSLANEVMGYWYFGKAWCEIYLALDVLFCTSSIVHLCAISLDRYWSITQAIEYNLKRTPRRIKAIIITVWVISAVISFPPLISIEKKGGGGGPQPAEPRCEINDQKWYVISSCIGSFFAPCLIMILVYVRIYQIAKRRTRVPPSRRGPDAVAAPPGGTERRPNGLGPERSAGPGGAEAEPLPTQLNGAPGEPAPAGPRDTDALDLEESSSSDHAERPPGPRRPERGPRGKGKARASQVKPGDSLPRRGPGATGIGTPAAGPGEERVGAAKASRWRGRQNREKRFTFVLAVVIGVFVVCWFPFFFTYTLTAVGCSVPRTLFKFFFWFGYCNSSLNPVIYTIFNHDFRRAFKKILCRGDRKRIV

[23] = target: D(3) dopamine receptor (Homo sapiens) (UniProt P35462); test: Inhibition of D3 receptor (unknown origin) at 50 uM by radioligand receptor binding assay relative to control
[24] = target: T2, 5-hydroxytryptamine receptor 1A (Homo sapiens) (UniProt P08908); test: Inhibition of 5-HT1A receptor (unknown origin) at 50 uM by radioligand receptor binding assay relative to control
T2 sequence (whole entry): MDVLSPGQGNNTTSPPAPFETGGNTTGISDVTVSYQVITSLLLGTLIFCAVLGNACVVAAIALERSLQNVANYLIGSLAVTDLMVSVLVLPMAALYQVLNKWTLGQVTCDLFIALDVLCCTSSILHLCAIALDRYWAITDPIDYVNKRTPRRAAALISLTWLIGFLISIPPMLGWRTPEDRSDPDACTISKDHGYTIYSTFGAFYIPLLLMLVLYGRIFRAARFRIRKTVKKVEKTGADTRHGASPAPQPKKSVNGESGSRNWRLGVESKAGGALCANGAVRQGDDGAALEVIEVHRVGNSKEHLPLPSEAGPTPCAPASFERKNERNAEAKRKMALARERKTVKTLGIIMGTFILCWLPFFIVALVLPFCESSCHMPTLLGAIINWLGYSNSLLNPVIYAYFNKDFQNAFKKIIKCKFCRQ

[25] = target: Mu-type opioid receptor (Homo sapiens) (UniProt P35372); test: Inhibition of mu opioid receptor (unknown origin) at 50 uM by radioligand receptor binding assay relative to control
[26] = target: 5-hydroxytryptamine receptor 2A (Homo sapiens) (UniProt P28223); test: Inhibition of 5-HT2A receptor (unknown origin) at 50 uM by radioligand receptor binding assay relative to control
[27] = target: Glutamate [NMDA] receptor (Homo sapiens) (UniProt Q05586+Q12879+Q13224+O15399+O60391+Q14957+Q8TCU5); test: Inhibition of NMDA receptor (unknown origin) at 50 uM by radioligand receptor binding assay relative to control; format: protein-complex assay
[28] = target: Sodium-dependent noradrenaline transporter (Homo sapiens) (UniProt P23975); test: Inhibition of Noradrenaline receptor (unknown origin) at 50 uM by radioligand receptor binding assay relative to control
[29] = target: Cannabinoid receptor 1 (Homo sapiens) (UniProt P21554); test: Inhibition of CB1 receptor (unknown origin) at 50 uM by radioligand receptor binding assay relative to control
[30] = target: Sigma non-opioid intracellular receptor 1 (Homo sapiens) (UniProt Q99720); test: Inhibition of sigma 1 receptor (unknown origin) at 50 uM by radioligand receptor binding assay relative to control
[31] = target: Cannabinoid receptor 2 (Homo sapiens) (UniProt P34972); test: Inhibition of CB2 receptor (unknown origin) at 50 uM by radioligand receptor binding assay relative to control
[32] = target: D(2) dopamine receptor (Homo sapiens) (UniProt P14416); test: Inhibition of D2 receptor (unknown origin) at 50 uM by radioligand receptor binding assay relative to control
[33] = target: Sigma intracellular receptor 2 (Homo sapiens) (UniProt Q5BJF2); test: Inhibition of sigma 2 receptor (unknown origin) at 50 uM by radioligand receptor binding assay relative to control
Sigma intracellular receptor 2 (Homo sapiens), sequence (Q5BJF2 whole entry): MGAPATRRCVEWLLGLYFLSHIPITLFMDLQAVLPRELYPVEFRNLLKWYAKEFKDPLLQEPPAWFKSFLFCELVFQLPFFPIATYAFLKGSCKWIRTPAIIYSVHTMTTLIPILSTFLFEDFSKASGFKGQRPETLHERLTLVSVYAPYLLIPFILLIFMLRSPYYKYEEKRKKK

Sodium-dependent serotonin transporter (Homo sapiens), sequence (P31645 whole entry, looked up): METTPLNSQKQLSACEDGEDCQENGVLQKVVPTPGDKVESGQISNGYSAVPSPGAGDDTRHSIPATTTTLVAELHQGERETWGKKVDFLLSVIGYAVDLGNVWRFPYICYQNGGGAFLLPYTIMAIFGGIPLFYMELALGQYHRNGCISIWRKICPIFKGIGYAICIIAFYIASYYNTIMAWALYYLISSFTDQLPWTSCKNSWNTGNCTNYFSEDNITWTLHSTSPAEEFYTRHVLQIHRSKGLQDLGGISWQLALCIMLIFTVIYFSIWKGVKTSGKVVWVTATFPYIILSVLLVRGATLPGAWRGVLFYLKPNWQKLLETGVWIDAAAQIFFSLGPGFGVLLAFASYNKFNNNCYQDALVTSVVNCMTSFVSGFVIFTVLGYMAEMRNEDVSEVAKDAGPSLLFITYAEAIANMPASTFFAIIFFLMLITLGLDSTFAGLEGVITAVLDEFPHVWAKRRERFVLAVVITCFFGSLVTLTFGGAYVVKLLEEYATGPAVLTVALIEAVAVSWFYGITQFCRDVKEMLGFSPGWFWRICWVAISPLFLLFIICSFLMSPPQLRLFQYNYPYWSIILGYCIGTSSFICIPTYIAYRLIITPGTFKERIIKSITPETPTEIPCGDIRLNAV
Mu-type opioid receptor (Homo sapiens), sequence (P35372 whole entry): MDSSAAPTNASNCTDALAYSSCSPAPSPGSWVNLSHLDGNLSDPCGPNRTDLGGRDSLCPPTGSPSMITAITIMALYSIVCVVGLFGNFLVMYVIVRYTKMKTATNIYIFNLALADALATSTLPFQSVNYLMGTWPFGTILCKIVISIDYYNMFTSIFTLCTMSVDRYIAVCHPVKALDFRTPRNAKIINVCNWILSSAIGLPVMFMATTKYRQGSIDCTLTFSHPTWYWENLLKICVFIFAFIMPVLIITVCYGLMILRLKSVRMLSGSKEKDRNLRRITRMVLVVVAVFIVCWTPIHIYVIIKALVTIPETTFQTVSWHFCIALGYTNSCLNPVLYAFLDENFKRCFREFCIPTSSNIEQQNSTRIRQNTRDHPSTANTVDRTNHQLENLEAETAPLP
Sodium-dependent noradrenaline transporter (Homo sapiens), sequence (P23975 whole entry): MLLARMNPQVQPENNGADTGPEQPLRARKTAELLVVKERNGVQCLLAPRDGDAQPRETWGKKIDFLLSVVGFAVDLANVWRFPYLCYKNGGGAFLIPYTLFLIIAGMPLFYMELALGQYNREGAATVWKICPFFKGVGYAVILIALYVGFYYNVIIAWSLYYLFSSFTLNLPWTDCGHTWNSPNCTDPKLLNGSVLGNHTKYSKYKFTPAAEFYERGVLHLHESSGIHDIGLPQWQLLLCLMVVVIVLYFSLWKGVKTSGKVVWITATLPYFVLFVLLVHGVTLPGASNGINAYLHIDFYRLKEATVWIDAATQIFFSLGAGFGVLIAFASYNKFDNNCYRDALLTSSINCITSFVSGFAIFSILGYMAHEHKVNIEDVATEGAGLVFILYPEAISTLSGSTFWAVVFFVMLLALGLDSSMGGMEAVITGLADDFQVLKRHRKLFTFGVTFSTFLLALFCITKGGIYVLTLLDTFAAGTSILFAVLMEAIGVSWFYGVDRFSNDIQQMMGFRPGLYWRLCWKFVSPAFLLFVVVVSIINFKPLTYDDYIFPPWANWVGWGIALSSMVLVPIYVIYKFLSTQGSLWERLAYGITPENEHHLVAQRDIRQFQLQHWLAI
Sigma non-opioid intracellular receptor 1 (Homo sapiens), sequence (Q99720 whole entry): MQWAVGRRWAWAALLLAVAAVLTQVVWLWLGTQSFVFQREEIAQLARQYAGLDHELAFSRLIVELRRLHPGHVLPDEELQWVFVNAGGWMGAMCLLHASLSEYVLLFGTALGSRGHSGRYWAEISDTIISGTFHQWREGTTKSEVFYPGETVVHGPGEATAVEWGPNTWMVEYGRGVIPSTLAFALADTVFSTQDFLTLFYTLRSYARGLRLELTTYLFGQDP
Cannabinoid receptor 1 (Homo sapiens), sequence (P21554 whole entry): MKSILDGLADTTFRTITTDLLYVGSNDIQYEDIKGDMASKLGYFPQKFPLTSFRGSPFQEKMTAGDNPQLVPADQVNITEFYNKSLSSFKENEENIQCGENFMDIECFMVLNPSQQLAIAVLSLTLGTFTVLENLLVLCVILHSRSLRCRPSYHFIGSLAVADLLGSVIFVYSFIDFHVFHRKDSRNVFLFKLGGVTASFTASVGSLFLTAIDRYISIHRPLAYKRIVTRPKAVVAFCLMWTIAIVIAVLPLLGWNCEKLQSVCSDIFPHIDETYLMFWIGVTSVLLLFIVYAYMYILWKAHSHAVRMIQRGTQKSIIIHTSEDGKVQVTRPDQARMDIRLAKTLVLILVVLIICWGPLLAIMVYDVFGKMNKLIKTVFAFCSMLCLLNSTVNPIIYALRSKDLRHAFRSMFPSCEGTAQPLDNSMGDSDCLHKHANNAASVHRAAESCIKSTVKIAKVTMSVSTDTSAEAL
D(2) dopamine receptor (Homo sapiens), sequence (P14416 whole entry): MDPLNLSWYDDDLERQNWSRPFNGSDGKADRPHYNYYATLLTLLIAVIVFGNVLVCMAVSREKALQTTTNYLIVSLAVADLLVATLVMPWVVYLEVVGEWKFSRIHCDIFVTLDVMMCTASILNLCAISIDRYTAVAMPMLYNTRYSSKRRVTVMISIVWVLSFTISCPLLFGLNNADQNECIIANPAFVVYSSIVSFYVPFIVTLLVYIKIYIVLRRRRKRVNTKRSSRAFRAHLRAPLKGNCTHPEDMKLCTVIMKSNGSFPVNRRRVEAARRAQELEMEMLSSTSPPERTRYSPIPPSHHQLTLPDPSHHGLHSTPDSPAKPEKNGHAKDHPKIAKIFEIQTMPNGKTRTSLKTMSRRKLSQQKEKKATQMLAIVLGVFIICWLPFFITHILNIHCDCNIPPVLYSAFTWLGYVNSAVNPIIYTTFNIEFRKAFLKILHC
D(3) dopamine receptor (Homo sapiens), sequence (P35462 whole entry): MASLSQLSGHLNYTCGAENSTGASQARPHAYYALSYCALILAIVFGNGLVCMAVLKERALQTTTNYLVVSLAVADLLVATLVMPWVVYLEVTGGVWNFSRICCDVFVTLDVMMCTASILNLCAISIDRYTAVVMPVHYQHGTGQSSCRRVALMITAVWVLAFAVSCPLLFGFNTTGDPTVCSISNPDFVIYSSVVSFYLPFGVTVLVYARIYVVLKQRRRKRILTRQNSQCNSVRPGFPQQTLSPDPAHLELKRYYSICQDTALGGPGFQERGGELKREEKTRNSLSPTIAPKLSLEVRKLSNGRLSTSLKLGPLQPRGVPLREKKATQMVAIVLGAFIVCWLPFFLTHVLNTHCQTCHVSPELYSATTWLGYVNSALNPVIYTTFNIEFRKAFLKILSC
Cannabinoid receptor 2 (Homo sapiens), sequence (P34972 whole entry): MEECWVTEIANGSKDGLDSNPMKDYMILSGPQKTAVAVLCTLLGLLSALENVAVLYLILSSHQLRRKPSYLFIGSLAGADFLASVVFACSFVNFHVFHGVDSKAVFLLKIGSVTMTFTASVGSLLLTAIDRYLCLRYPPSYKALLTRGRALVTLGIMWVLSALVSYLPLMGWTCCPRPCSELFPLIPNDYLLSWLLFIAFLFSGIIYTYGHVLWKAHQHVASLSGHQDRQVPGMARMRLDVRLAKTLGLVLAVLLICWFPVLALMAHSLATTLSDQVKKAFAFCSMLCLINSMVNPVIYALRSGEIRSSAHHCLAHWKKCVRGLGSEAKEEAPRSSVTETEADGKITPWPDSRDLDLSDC
5-hydroxytryptamine receptor 2A (Homo sapiens), sequence (P28223 whole entry): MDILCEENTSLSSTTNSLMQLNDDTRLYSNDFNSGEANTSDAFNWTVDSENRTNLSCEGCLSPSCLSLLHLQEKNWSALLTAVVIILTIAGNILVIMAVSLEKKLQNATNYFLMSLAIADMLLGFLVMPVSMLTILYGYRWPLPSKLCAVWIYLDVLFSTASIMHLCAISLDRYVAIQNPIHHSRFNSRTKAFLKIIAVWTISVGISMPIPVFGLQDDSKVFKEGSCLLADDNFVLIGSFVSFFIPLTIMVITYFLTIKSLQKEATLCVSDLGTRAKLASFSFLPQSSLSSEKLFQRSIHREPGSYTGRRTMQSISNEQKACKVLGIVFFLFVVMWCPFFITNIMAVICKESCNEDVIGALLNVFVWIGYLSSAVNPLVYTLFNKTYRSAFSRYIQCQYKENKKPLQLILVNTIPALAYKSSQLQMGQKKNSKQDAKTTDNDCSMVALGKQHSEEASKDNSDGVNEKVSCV

| Compound | LD50 [1] [mg/kg] | selectivity ratio [2] | logP [3] | HD50 (median hypnotic dose) [4] [mg/kg] | inhibition [5] [%] | LD50 [6] [mg/kg] | EC50 [7] [mg/kg] | Time [8] [s] | Time [9] [s] | Time [10] [s] | EC50 [11] [mg/kg] | Time [12] [s] | Time [13] [s] | Time [14] [s] | Time [15] [s] | Time [16] [s] | LD50 [17] [mg/kg] | Time [18] [s] | selectivity ratio [19] | selectivity ratio [20] | also measured |
| --- | --- | --- | --- | --- | --- | --- | --- | --- | --- | --- | --- | --- | --- | --- | --- | --- | --- | --- | --- | --- | --- |
| CCOc1cc(CC(=O)OCC(F)(F)F)ccc1OCC(=O)N1CCN(c2cccc(C)c2C)CC1 | 227 | 6.4 | 4.7 | 35.6 | 32.1 | – | – | – | – | – | – | – | – | – | – | – | – | – | – | – | – |
| CCOc1cc(CC(=O)OC(C)C)ccc1OCC(=O)N1CCN(c2ccccc2)CC1 | 265 | 7.2 | 3.5 | 36.8 | 54.2 | – | – | – | – | – | – | – | – | – | – | – | – | – | – | – | – |
| CCCOC(=O)Cc1ccc(OCC(=O)N2CCN(c3cccc(Cl)c3Cl)CC2)c(OCC)c1 | 201 | 5.2 | 4.7 | 38.6 | 33.3 | – | – | – | – | – | – | – | – | – | – | – | – | – | – | – | – |
| CCCOC(=O)Cc1ccc(OCC(=O)N2CCN(c3cccc(C(F)(F)F)c3)CC2)c(OCC)c1 | 176 | 5.2 | 4.5 | 33.6 | 49.6 | – | – | – | – | – | – | – | – | – | – | – | – | – | – | – | – |
| CCCOC(=O)Cc1ccc(OCC(=O)N(CC)CC)c(OC)c1 [PROPANIDID] | – | 5.6 | 2.1 | – | 83.2 | 75.4 | 5.1 | 16.3 | 265.4 | 56.3 | 8.4 | 22.6 | 58.7 | 6.7 | 93.3 | 124.5 | 81 | 89.6 | 14.7 | 9.6 | – |
| CCCOC(=O)Cc1ccc(OCC(=O)N(CC)CC)c(OCC)c1 [AZD-3043] | – | 6 | 2.5 | 17.6 | 70.2 | 77.3 | 4.6 | 12.4 | 221.6 | 46.7 | 7.9 | 19.8 | 38.4 | 5.6 | 74.2 | 89.6 | 79.8 | 63.8 | 16.8 | 10.1 | – |
| CCOC(=O)Cc1ccc(OCC(=O)N2CCN(c3cccc(Cl)c3Cl)CC2)c(OCC)c1 | 237 | 6.5 | 4.3 | 36.5 | 42.1 | – | – | – | – | – | – | – | – | – | – | – | – | – | – | – | – |
| CCOC(=O)Cc1ccc(OCC(=O)N2CCN(c3cccc(C(F)(F)F)c3)CC2)c(OCC)c1 | 289 | 6.8 | 4.1 | 42.5 | 44.4 | – | – | – | – | – | – | – | – | – | – | – | – | – | – | – | – |
| CCCOC(=O)Cc1ccc(OCC(=O)N2CCN(c3ccccc3)CC2)c(OCC)c1 | 200 | 8 | 3.6 | 25 | 89.8 | 93.9 | 5.2 | 9.6 | 292.9 | 38.6 | 7.1 | 14.5 | 33.4 | 6.4 | 92.4 | 81.7 | 72.9 | 83.3 | 18.1 | 10.3 | inhibition [21]: 1.9%; inhibition [22]: 5.8%; inhibition [23]: 2.9%; inhibition [24]: 15.2%; inhibition [25]: 4.6%; inhibition [26]: 11.9%; inhibition [27]: 4.3%; inhibition [28]: 11.5%; inhibition [29]: 10.8%; inhibition [30]: 9.1%; inhibition [31]: 12.6%; inhibition [32]: 1.2%; inhibition [33]: 7.5% |
| CCOc1cc(CC(=O)OCC(F)(F)F)ccc1OCC(=O)N1CCN(c2cccc(C(F)(F)F)c2)CC1 | 198 | 6.3 | 4.7 | 31.2 | 38.8 | – | – | – | – | – | – | – | – | – | – | – | – | – | – | – | – |
